Test results: patent US20260062677A1, “ECTODERMAL MESENCHYMAL STEM CELLS AND METHOD FOR PRODUCING SAME” (STEMRIM INC., priority 2017, published 2026)

Key:
[1] = tested on: colony-forming Pα cells in peripheral blood; experiment: Colony assay of cultured peripheral blood after HA1-44 peptide administration; type: in vivo, mouse; conditions: FIG. 24
Procedure: The following method was used to recover cells from peripheral blood. Approximately 800 to 1000 μL of peripheral blood was collected from the heart under general anesthesia (using a 1 mL syringe containing heparin). To remove red blood cells, Hetasep (STEMCELL Technologies, Inc., Cat No. ST-07906) at equal amount of the collected blood was added, the mixture was centrifuged at 100 G for 2 minutes, and incubated at room temperature for 15 minutes, then the supernatant was recovered. The supernatant was subjected to the next experiment as a sample containing nuclear cells in peripheral blood.
The supernatant obtained by the above procedure (sample containing nucleated cells in peripheral blood) was seeded in a 6-well plate coated with collagen I (Corning Incorporated, Cat No. 356400), and cultured for 10 days under a condition of 37° C., 5% CO2, 5% 02 using a medium containing 1% L-glutamine (NACALAI TESQUE, INC.), 10 μM ROCK inhibitor (Y27632, Tocris Bioscience) and 1% penicillin/streptomycin (NACALAI TESQUE, INC.) in an expansion medium prepared using a MesenCult Expansion Kit (STEMCELL Technologies, Inc., Cat No. ST-05513) according to the manual of the kit (all concentrations described are final concentrations). The medium was replaced with a fresh medium twice a week during the culture period. […]

[2] = tested on: Pα^lin+ cells in grafted skin; experiment: Parabiosis model (Pα-Cre::Rosa26-EYFP / wild-type) with epidermolysis bullosa mouse skin graft; type: in vivo; conditions: peptide given to the Pα-Cre::Rosa26-EYFP partner, epidermolysis bullosa skin grafted on the wild-type partner; FIG. 25
Description: (§1) A parabiosis model was created using a 6-week old male wild-type mouse and a 6-week old male cell lineage tracing mouse with reference to Kamran P et al. J Vis Exp. 2013 Oct. 6; (80). Two mice were simultaneously subjected to general anesthetic induction with isoflurane, and positioned on a heat pad. The body side surfaces opposite to each other of the two mice were shaved, and the skin was removed approximately 5 mm wide from the elbow joint to the knee joint. The dorsal skin was continuously sutured with 5-0 VICRYL. The elbow joints and knee joints each opposite to each other were sutured with 3-0 VICRYL. The abdominal skin was also continuously sutured with 5-0 VICRYL. The mice were left on the heat pad until awakened from anesthesia. To avoid restricting activity, up to one pair were raised per cage, and scattered food was offered.
(§2) The present inventors have previously identified a peptide (HA1-44 peptide) consisting of the amino acid sequence of positions 1-44 (SEQ ID NO: 1) at the N-terminus of HMGB1 protein as a domain having the activity of mobilizing bone marrow-derived Pα-positive mesenchymal stem cells into peripheral blood. […] Furthermore, a cartilage injury was created to the knee joint of a wild-type mouse alone that was not a parabiosis model, then the HA1-44 peptide or saline was administered.

[3] = tested on: Pα^+ and Prx1^lin− cells in the skin graft; experiment: Parabiosis model (Pα-H2B-GFP::Prx1-Cre::Rosa26-tdTomato / wild-type) with wild-type neonate skin graft; type: in vivo, mouse; conditions: peptide given to the reporter partner, neonate skin grafted on back of the wild-type partner; FIG. 26
Description: as §1, §2

[4] = tested on: P0^lin+ cells at the cartilage injury site; experiment: Parabiosis (P0-Cre::Rosa26-tdTomato / wild-type) and knee cartilage defect model; type: in vivo, mouse; conditions: 100 μg via tail vein, twice a week until 4 weeks; knee joint collected at 12 weeks; versus saline (no accumulation); FIG. 27
Description: as §1
A parabiosis model was created using a 6-week old male wild-type mouse and a 6-week old male P0-Cre::Rosa26-tdTomato mouse using the method described in 3. above. After completion of the blood chimera at 4 weeks after operation, a 0.5×0.5×0.5 mm cartilage defect was created in the knee joint of the wild-type mouse using a 0.5 mm-diameter hand-turned drill (manufactured by MEISINGER USA, L.L.C.). […] It was sliced at a thickness of 10 μm using a cryostat, and the distribution of Tomato-positive cells was analyzed by confocal microscopy. […]

[5] = tested on: knee cartilage injury site; experiment: Knee cartilage defect model in wild-type mouse, safranin O staining; type: in vivo; conditions: wild-type mouse alone; 100 μg via tail vein twice a week until 4 weeks; 2, 4, 8 and 12 weeks; saline group only fibrous cartilage; FIG. 28
Procedure: A parabiosis model was created using a 6-week old male wild-type mouse and a 6-week old male P0-Cre::Rosa26-tdTomato mouse using the method described in 3. above. After completion of the blood chimera at 4 weeks after operation, a 0.5×0.5×0.5 mm cartilage defect was created in the knee joint of the wild-type mouse using a 0.5 mm-diameter hand-turned drill (manufactured by MEISINGER USA, L.L.C.). Shortly after the cartilage defect was created, 100 μg of HA1-44 peptide diluted with 100 μL of saline was administered from the tail vein and subsequently administered at the same dose twice a week until 4 weeks after operation. To the control group, 100 μL of saline was administered to each mouse from the tail vein on the same schedule as in the HA1-44 peptide administration group. A knee joint was collected 12 weeks after knee cartilage defect creation, then fixation with 4% paraformaldehyde (overnight), deashing with 0.5 M EDTA solution (3 days), and 30% sucrose replacement (1 day) were performed to create a frozen block. It was sliced at a thickness of 10 μm using a cryostat, and the distribution of Tomato-positive cells was analyzed by confocal microscopy. […]

vertebral Pα cells = experiment: Transcriptome and IPA pathway analysis of vertebral Pα cells after administration; type: in vivo, mouse; conditions: compared to control group (saline)
Procedure: RNA was extracted from the cell population, and an RNA-seq library was created according to Smart-seq2 protocol (Nature Protocols 9, 171-181 (2014) doi: 10.1038/nprot.2014.006). The obtained library was sequenced with Nextseq 500 (Illumina, Inc.) using a nextseq high output kit (37 bp pair end reads). Using bcl2fastq v2.17.1.14 of Illumina, Inc. with default parameters and optional --no-lane-splitting, conversion of base calls to fastq format and demultiplex were performed. Reads were trimmed using TrimGalore (http://www.bioinformatics.babraham.ac.uk/projects/trim_galore/), and mapping and counting (quantification) were performed using RSEM (Li et al., BMC Bioinformatics 12, 323 (2011); version STAR-2.5.2b). Differential expression analysis among samples was performed using DESeq2 (Love et al., Genome Biol. 15, 550 (2014)). Differentially Expressed Genes (DEGs) were uploaded to the Ingenuity Pathway Analysis (IPA) software (https://www.qiagenbioinformatics.com) to extract the most relevant biological pathways and functions to DEGs. Clustering analysis was performed using ICGS algorithm of AltAnalyze_v.2.1.0-Py based on log 2 converted values of 1-added TPM (Transcripts Per kilobase Million) counts obtained with RSEM (log 2 (TPM+1)). […]

[6] = tested on: CD45-negative, TER-119-negative, and PDGFRβ-positive cells; experiment: Phase I clinical study, cells in circulating blood; type: in vivo; conditions: human, intravenous administration; peripheral blood mononuclear cell fractions before, 8 h and 24 h after administration; FIG. 33
Description: Since PDGFRβ is a marker of human mesenchymal stem cells, it is believed that a marker (including a combination of multiple markers) defining iCFPα cells and vertebral CFPα cells in peripheral blood described herein, in which the term “PDGFRα” is replaced with the term “PDGFRβ”, will also be a marker (including a combination of multiple markers) defining EMSC (colony-forming PDGFR-positive cells in peripheral blood or in vertebra) in humans.

HA1-44 peptide: peptide consisting of amino acid sequence of positions 1-44 (MGKGDPKKPRGKMSSYAFFVQTCREEHKKKHPDASVNFSEFSKK) at the N-terminus of A-box of HMGB1 protein
number of colonies obtained by culturing peripheral blood ([1]; lineage tracing mice, versus control group (saline administration)): more colonies than peripheral blood in the control group
markers of the colonies obtained (Pα, Prx1 lineage) ([1]; peripheral blood of lineage tracing mice given the peptide): All of the colonies were Pα-positive, and the majority of which were Prx1 lineage-negative
Pα^lin+ cells expressing type 7 collagen in regenerated epithelial tissue of the skin graft [2]: presence of Pα^lin+ cells expressing type 7 collagen was confirmed
Pα^+ and Prx1^lin− cells in the skin graft [3]: presence of Pα^+ and Prx1^lin− cells in the skin graft was confirmed
accumulation of P0^lin+ cells at the cartilage injury site [4]: accumulation of P0^lin+ cells was confirmed
cartilage regeneration at the cartilage injury site [5]: hyaline cartilage was regenerated
pathways associated with EIF2 signaling, regulation of eIF4 and p70S6K signaling, and mTOR signaling (vertebral Pα cells; FIG. 31): activated
expression of cell death-related genes (vertebral Pα cells; FIG. 32): suppressed
CD45-negative, TER-119-negative, and PDGFRβ-positive cells in circulating blood [6]: increase
